pIC50: −log10 of the molar value.

The assay concerns the target rat brain cortical membranes ([35S]-TBPS binding; GABAA receptor). The assay can be described thus: Steroid inhibition of [35S]-TBPS binding (radioligand displacement). To be noted: 3 nM [35S]-TBPS, in the presence of 5 μM GABA, 90 min at room temp. The text has this:
TBPS binding assays using rat brain cortical membranes in the presence of […] GABA has been described (Gee et al, J. Pharmacol. Exp. Ther. 1987, 241, 346-353; Hawkinson et al, Mol. Pharmacol. 1994, 46, 977-985; Lewin, A. H et al., Mol. Pharmacol. 1989, 35, 189-194).
Briefly, cortices are rapidly removed following decapitation of carbon dioxide-anesthetized Sprague-Dawley rats (200-250 g). The cortices are homogenized in 10 volumes of ice-cold 0.32 M sucrose using a glass/teflon homogenizer and centrifuged at 1500×g for 10 min at 4° C. The resultant supernatants are centrifuged at 10,000×g for 20 min at 4° C.; to obtain the P2 pellets. The P2 pellets are resuspended in 200 mM NaCl/50 mM Na—K phosphate pH 7.4 buffer and centrifuged at 10,000×g for 10 min at 4° C. This washing procedure is repeated twice and the pellets are resuspended in 10 volumes of buffer. Aliquots (100 μL) of the membrane suspensions are incubated with 3 nM [^35S]-TBPS and 5 μL aliquots of test drug dissolved in dimethyl sulfoxide (DMSO) (final 0.5%) in the presence of 5 μM GABA. The incubation is brought to a final volume of 1.0 mL with buffer. Nonspecific binding is determined in the presence of 2 μM unlabeled TBPS and ranged from 15 to 25%. Following a 90 min incubation at room temp, the assays are terminated by filtration through glass fiber filters (Schleicher and Schuell No. 32) using a cell harvester (Brandel) and rinsed three times with ice-cold buffer. Filter bound radioactivity is measured by liquid scintillation spectrometry. Non-linear curve fitting of the overall data for each drug averaged for each concentration is done using Prism (GraphPad). […] The concentration of test compound producing 50% inhibition (IC50) of specific binding and the maximal extent of inhibition (Imax) are determined for the individual experiments with the same model used for the overall data and then the means±SEM.s of the individual experiments are calculated.
Various compounds are or can be screened to determine their potential as modulators of [^35S]-TBPS binding in vitro. These assays are or can be performed in accordance with the above discussed procedures.

With `CC(C(=O)[C@H]1CC[C@H]2[C@@H]3CC[C@@H]4C[C@](C)(O)CC[C@@H]4[C@H]3CC[C@]12C)N1CCOCC1` (stereo partly drawn) [Compound 5, 1-((3R,5R,8R,9R,10S,13S,14S,17S)-3-hydroxy-3,13-dimethylhexadecahydro-1H-cyclopenta[a]phenanthren-17-yl)-2-morpholinopropan-1-one], the pIC50 is 6.30 to 6.60. Next, `C[C@H](C(=O)[C@H]1CC[C@H]2[C@@H]3CC[C@@H]4C[C@](C)(O)CC[C@@H]4[C@H]3CC[C@]12C)n1cc(C#N)cn1` [Compound 4, 1-((R)-1-((3R,5R,8R,9R,10S,13S,14S,17S)-3-hydroxy-3,13-dimethylhexadecahydro-1H-cyclopenta[a]phenanthren-17-yl)-1-oxopropan-2-yl)-1H-pyrazole-4-carbonitrile]: 7.00 to 7.30. As for `C[C@H](C(=O)[C@H]1CC[C@H]2[C@@H]3CC[C@@H]4C[C@](C)(O)CC[C@@H]4[C@H]3CC[C@]12C)n1nccn1` [Compound 1, (R)-1-((3R,5R,8R,9R,10S,13S,14S,17S)-3-hydroxy-3,13-dimethylhexadecahydro-1H-cyclopenta[a]phenanthren-17-yl)-2-(2H-1,2,3-triazol-2-yl)propan-1-one], the pIC50 was 6.30 to 6.60. As to `C[C@@H](C(=O)[C@H]1CC[C@H]2[C@@H]3CC[C@@H]4C[C@](C)(O)CC[C@@H]4[C@H]3CC[C@]12C)n1nccn1` [Compound 2, (S)-1-((3R,5R,8R,9R,10S,13S,14S,17S)-3-hydroxy-3,13-dimethylhexadecahydro-: 1H-cyclopenta[a]phenanthren-17-yl)-2-(2H-1,2,3-triazol-2-yl)propan-1-one], the negative logarithm of the IC50 (pIC50) is 7.00 to 7.30. On to `C[C@H](C(=O)[C@H]1CC[C@H]2[C@@H]3CC[C@@H]4C[C@](C)(O)CC[C@@H]4[C@H]3CC[C@]12C)n1nc2ccccc2n1` [Compound 7, (R)-2-(2H-benzo[d][1,2,3]triazol-2-yl)-1-((3R,5R,8R,9R,10S,13S,14S,17S)-3-hydroxy-3,13-dimethylhexadecahydro-1H-cyclopenta[a]phenanthren-17-yl)propan-1-one], for which the pIC50 was 6.30 to 6.60. To `C[C@@H](C(=O)[C@H]1CC[C@H]2[C@@H]3CC[C@@H]4C[C@](C)(O)CC[C@@H]4[C@H]3CC[C@]12C)n1nc2ccccc2n1` [Compound 6, (S)-2-(2H-benzo[d][1,2,3]triazol-2-yl)-1-((3R,5R,8R,9R,10S,13S,14S,17S)-3-hydroxy-3,1:3-dimethylhexadecahydro-1H-cyclopenta[a]phenanthren-17-yl)propan-1-one] belongs > 7.30; to `C[C@@H](C(=O)[C@H]1CC[C@H]2[C@@H]3CC[C@@H]4C[C@](C)(O)CC[C@@H]4[C@H]3CC[C@]12C)n1cc(C#N)cn1` [Compound 3, 1-((S)-1-((3R,5R,8R,9R,10S,13S,14S,17S)-3-hydroxy-3,13-dimethylhexadecahydro-1H-cyclopenta[a]phenanthren-17-yl)-1-oxopropan-2-yl)-1H-pyrazole-4-carbonitrile], > 7.30.

Broadly, the pIC50 is −log10 of the IC50, conventionally taken in molar units.

The values above are taken from patent US12180248B2, “Compositions and methods for treating CNS disorders” (Sage Therapeutics, Inc., priority 2014, dated 2024).
